The text below walks through data of ChEMBL document CHEMBL1828525, “Metronidazole acid acyl sulfonamide: a novel class of anticancer agents and potential EGFR tyrosine kinase inhibitors” (Bioorg Med Chem, 2011).

Molecules are shown by their SMILES. Converted amounts (≈) assume the structure as drawn. Where only a bound is given, the exact number is not on record here.

Experiment [1] concerns the target Receptor tyrosine-protein kinase erbB-2 (Homo sapiens, UniProt P04626).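 Also: recombinant His6-tagged human HER-2, autophosphorylation inhibition read by DELFIA time-resolved fluorescence after 10 min preincubation.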
Description: Inhibition of human recombinant (His)6-tagged HER-2 autophosphorylation pre-incubated for 10 mins by DELFIA/Time-resolved fluorimetry
A further experiment concerns A549. The experiment in a line: Antiproliferative activity against human A549 cells after 48 hrs by MTT assay. It is filed as functional, cell-based. The conditions noted are these: A549, 48 h. (In general: Formazan colour is commonly taken as a measure of viable cells.)
In the next experiment the test system is B16-F10. The experiment in a line: Antiproliferative activity against mouse B16-F10 cells after 48 hrs by MTT assay. It is filed as functional, cell-based. Particulars: B16-F10, 48 h.
Experiment [2] has as its target Epidermal growth factor receptor (Homo sapiens, UniProt P00533).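 Also: recombinant His6-tagged EGFR autophosphorylation, read by DELFIA time-resolved fluorimetry after a 10 min preincubation.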
Description: Inhibition of human recombinant (His)6-tagged EGFR autophosphorylation pre-incubated for 10 mins by DELFIA/Time-resolved fluorimetry

Receptor tyrosine-protein kinase erbB-2, sequence (P04626 whole entry): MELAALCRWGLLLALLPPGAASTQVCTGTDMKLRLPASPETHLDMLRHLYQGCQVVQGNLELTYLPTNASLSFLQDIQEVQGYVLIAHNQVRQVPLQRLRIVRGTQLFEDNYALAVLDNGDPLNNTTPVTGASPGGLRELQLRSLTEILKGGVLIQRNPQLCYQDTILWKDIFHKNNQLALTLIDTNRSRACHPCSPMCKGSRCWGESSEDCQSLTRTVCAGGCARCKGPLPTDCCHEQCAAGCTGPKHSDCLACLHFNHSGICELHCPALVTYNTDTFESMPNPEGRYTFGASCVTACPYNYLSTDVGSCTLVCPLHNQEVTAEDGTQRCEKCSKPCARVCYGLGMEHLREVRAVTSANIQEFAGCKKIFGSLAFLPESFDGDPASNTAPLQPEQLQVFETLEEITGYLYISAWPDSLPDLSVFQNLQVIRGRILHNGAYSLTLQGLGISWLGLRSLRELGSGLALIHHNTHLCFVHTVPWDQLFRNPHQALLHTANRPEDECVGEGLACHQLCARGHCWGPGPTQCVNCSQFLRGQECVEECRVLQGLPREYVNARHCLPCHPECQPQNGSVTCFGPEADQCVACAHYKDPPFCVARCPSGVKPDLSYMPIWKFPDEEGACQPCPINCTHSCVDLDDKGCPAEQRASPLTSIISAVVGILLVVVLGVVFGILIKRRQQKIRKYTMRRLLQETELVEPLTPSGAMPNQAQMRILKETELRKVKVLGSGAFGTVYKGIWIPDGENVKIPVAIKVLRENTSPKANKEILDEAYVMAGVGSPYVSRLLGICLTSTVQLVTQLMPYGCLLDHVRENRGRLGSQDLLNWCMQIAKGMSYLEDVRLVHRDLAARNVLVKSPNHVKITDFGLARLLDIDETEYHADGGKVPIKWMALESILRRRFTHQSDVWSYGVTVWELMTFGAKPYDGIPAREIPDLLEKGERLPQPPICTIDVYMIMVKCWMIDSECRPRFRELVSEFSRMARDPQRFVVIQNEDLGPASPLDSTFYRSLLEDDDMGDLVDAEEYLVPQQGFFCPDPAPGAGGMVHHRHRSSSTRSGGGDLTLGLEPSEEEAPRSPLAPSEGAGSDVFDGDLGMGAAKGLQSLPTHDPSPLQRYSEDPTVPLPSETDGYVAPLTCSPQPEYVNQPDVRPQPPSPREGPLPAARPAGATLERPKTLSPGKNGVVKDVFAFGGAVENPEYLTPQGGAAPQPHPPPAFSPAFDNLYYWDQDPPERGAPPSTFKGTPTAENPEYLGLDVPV
Epidermal growth factor receptor, sequence (P00533 whole entry): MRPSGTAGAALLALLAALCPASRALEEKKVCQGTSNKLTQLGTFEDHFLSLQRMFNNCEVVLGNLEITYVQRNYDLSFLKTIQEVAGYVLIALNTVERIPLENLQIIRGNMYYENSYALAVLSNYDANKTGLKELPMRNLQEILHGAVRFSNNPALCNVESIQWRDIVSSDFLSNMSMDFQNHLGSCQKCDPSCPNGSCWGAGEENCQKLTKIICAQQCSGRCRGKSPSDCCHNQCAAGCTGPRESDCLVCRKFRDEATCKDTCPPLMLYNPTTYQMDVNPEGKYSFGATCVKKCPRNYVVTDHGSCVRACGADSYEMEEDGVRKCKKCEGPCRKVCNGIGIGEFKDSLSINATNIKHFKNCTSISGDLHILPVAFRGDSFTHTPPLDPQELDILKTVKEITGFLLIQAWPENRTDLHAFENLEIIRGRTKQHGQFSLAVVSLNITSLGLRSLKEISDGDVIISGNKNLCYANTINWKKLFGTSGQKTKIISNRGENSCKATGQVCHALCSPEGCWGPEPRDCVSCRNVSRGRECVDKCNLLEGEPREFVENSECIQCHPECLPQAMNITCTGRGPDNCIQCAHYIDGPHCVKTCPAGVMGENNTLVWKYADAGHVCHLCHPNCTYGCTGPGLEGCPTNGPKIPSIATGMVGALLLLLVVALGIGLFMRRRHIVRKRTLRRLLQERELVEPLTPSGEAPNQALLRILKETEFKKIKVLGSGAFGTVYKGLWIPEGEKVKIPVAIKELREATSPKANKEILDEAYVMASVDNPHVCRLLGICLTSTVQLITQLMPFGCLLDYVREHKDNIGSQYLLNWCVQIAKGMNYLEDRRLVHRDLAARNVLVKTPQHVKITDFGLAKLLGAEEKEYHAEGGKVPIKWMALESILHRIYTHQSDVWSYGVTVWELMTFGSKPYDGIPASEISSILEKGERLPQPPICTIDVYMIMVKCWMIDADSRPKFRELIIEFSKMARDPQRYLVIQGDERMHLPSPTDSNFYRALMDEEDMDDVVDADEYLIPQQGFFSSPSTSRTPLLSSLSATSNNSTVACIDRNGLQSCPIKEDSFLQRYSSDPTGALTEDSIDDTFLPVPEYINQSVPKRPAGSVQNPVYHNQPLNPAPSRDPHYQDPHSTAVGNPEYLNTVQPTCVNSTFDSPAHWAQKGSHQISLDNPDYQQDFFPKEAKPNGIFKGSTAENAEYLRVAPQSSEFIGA

The IC50 is the concentration needed to halve the response being measured. Read a low IC50 as inhibition by little substance. `Cc1ncc([N+](=O)[O-])n1CC(=O)NS(=O)(=O)c1ccccc1` had an IC50 in experiment [1] of 4.21 µM.

On to `Cc1ccc(S(=O)(=O)NC(=O)Cn2c([N+](=O)[O-])cnc2C)cc1`, for which the IC50 in experiment [1] was 4.76 µM; with A549, 4.38 µg/mL (≈ 12.9 µM); with B16-F10, 3.55 µg/mL (≈ 10.5 µM); in experiment [2] it was 3.43 µM.

On to `Cc1ncc([N+](=O)[O-])n1CC(=O)NS(=O)(=O)c1ccc(F)cc1`, for which the IC50 in experiment [1] is 1.53 µM; in the experiment with A549, 1.26 µg/mL (≈ 3.68 µM); in the experiment with B16-F10, 0.35 µg/mL (≈ 1.02 µM); in experiment [2], 0.39 µM.

In the case of `Cc1ncc([N+](=O)[O-])n1CC(=O)NS(=O)(=O)c1ccc(Cl)cc1`, the IC50 came to 3.41 µM in experiment [1], 2.47 µg/mL (≈ 6.88 µM) in the experiment on A549, 0.92 µg/mL (≈ 2.56 µM) with B16-F10 and 1.51 µM in experiment [2].

`Cc1ncc([N+](=O)[O-])n1CC(=O)NS(=O)(=O)c1ccc(Br)cc1`: the concentration for half-maximal inhibition (IC50) in experiment [1] turned out to be 3.59 µM; in the experiment on A549, 3.03 µg/mL (≈ 7.51 µM); with B16-F10, 2.37 µg/mL (≈ 5.88 µM); in experiment [2], 2.17 µM.

With `O=C(Cc1ccc(F)cc1)NS(=O)(=O)c1ccccc1`, the IC50 in experiment [1] turned out to be 8.41 µM; with A549 it was 10.1 µg/mL (≈ 34.5 µM); with B16-F10, 9.07 µg/mL (≈ 30.9 µM); in experiment [2], 6.74 µM.

As for `Cc1ccc(S(=O)(=O)NC(=O)Cc2ccc(F)cc2)cc1`, the IC50 in experiment [1] was 10.5 µM; in the experiment on A549, 12 µg/mL (≈ 39.2 µM); with B16-F10, 9.94 µg/mL (≈ 32.3 µM); in experiment [2], 8.28 µM.

As for `O=C(Cc1ccc(F)cc1)NS(=O)(=O)c1ccc(F)cc1`, the IC50 in experiment [1] was determined as 7.02 µM; in the experiment with A549 it was 5.64 µg/mL (≈ 18.1 µM); in the experiment with B16-F10, 4.23 µg/mL (≈ 13.6 µM); in experiment [2] it was 5.17 µM.

`O=C(Cc1ccc(F)cc1)NS(=O)(=O)c1ccc(Cl)cc1`: the concentration for half-maximal inhibition (IC50) was found to be 7.56 µM in experiment [1], 6.28 µg/mL (≈ 19.2 µM) with A549, 6.36 µg/mL (≈ 19.4 µM) in the experiment on B16-F10 and 5.93 µM in experiment [2].

Take `O=C(Cc1ccc(F)cc1)NS(=O)(=O)c1ccc(Br)cc1`: the half-inhibitory concentration (IC50) was found to be 8.18 µM in experiment [1], 7.94 µg/mL (≈ 21.3 µM) in the experiment with A549, 8.2 µg/mL (≈ 22 µM) with B16-F10 and 6.41 µM in experiment [2].

With `O=C(Cc1ccc(Cl)cc1)NS(=O)(=O)c1ccccc1`, the IC50 in experiment [1] was found to be 13.1 µM; in experiment [2], 11.9 µM.

As for `Cc1ccc(S(=O)(=O)NC(=O)Cc2ccc(Cl)cc2)cc1`, the IC50 stood at 15.6 µM in experiment [1] and 13.7 µM in experiment [2].

Regarding `O=C(Cc1ccc(Cl)cc1)NS(=O)(=O)c1ccc(F)cc1`, the results for the concentration for half-maximal inhibition (IC50) in experiment [1] and in experiment [2] were 11.1 µM and 9.59 µM, respectively.

On to `O=C(Cc1ccc(Cl)cc1)NS(=O)(=O)c1ccc(Cl)cc1`, for which the IC50 is 13.3 µM in experiment [1] and 10.3 µM in experiment [2].

Turning to `O=C(Cc1ccc(Cl)cc1)NS(=O)(=O)c1ccc(Br)cc1`, the IC50 worked out at 13.6 µM in experiment [1] and 11.3 µM in experiment [2].

In the case of `O=C(Cc1ccc(Br)cc1)NS(=O)(=O)c1ccccc1`, the 50% inhibitory concentration (IC50) in experiment [1] is 19 µM; in experiment [2], 17.8 µM.

In the case of `Cc1ccc(S(=O)(=O)NC(=O)Cc2ccc(Br)cc2)cc1`, the IC50 in experiment [1] was 20.3 µM; in experiment [2], 18.4 µM.

As to `O=C(Cc1ccc(Br)cc1)NS(=O)(=O)c1ccc(F)cc1`, the IC50 in experiment [1] came to 16.3 µM; in experiment [2] it was 14.5 µM.

Consider `O=C(Cc1ccc(Br)cc1)NS(=O)(=O)c1ccc(Cl)cc1`, for which the IC50 turned out to be 18.9 µM in experiment [1] and 15.9 µM in experiment [2].

On to `O=C(Cc1ccc(Br)cc1)NS(=O)(=O)c1ccc(Br)cc1`, for which the concentration for half-maximal inhibition (IC50) in experiment [1] worked out at 19.8 µM.

For the compound `COc1ccc(CC(=O)NS(=O)(=O)c2ccccc2)cc1`, the results for the 50% inhibitory concentration (IC50) in experiment [1] and in experiment [2] were 29.1 µM and 26.2 µM, respectively.

Take `COc1ccc(CC(=O)NS(=O)(=O)c2ccc(C)cc2)cc1`: the 50% inhibitory concentration (IC50) in experiment [1] is > 50 µM; in experiment [2], 38.5 µM.

For the compound `COc1ccc(CC(=O)NS(=O)(=O)c2ccc(F)cc2)cc1`, the concentration for half-maximal inhibition (IC50) was determined as 23.4 µM in experiment [1] and 21.8 µM in experiment [2].

Turning to `COc1ccc(CC(=O)NS(=O)(=O)c2ccc(Cl)cc2)cc1`, the IC50 in experiment [1] stood at 37.9 µM; in experiment [2], 32.9 µM.

On to `COc1ccc(CC(=O)NS(=O)(=O)c2ccc(Br)cc2)cc1`, for which the figures for the half-inhibitory concentration (IC50) in experiment [1] and in experiment [2] were 25 µM and 24.2 µM, respectively.

Take `O=C(Cc1cccc(Br)c1)NS(=O)(=O)c1ccccc1`: the IC50 came out at 26.3 µM in experiment [1] and 24.7 µM in experiment [2].

On to `Cc1ccc(S(=O)(=O)NC(=O)Cc2cccc(Br)c2)cc1`, for which the results for the IC50 in experiment [1] and in experiment [2] were 27.9 µM and 26.2 µM, respectively.

As to `O=C(Cc1cccc(Br)c1)NS(=O)(=O)c1ccc(F)cc1`, the values for the IC50 in experiment [1] and in experiment [2] were 20.4 µM and 18.7 µM, respectively.

Consider `O=C(Cc1cccc(Br)c1)NS(=O)(=O)c1ccc(Cl)cc1`, for which the IC50 in experiment [1] was determined as 23.5 µM; in experiment [2], 21.3 µM.

For `O=C(Cc1cccc(Br)c1)NS(=O)(=O)c1ccc(Br)cc1`, the values for the IC50 in experiment [1] and in experiment [2] were 27.4 µM and 24.3 µM, respectively.
